One data set addresses T1, Recombinant human Arg2 (Homo sapiens, UniProt P78540).
T1 construct: Recombinant human arginase 2 (Arg2) comprising amino acids 23–254 was purchased from US Biological; purchased US Biological (Salem, MA)
T1 sequence (P78540 23-354): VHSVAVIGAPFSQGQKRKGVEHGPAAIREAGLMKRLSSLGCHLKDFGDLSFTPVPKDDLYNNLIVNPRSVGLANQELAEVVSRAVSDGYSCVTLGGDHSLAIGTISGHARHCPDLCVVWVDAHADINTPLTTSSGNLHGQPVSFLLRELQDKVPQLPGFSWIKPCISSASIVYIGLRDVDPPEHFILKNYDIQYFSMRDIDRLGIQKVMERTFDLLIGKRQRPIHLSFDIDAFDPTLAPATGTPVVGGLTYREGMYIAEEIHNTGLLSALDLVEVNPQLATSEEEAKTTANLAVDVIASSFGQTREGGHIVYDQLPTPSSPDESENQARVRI
Put plainly: Recombinant arginase activity assay (Arg2). Type of data set: biochemical. The settings on record: 20 mM L-arginine; N = 2; mean (±SD).

The test system of another data set is CT26 tumors. The data set can be described thus: CT26 syngeneic tumor model.
Data set [1] is described as follows: Pharmacokinetic and pharmacodynamic study in LLC tumor-bearing mice. The note with it: oral dosing, pharmacodynamic effect. The format is in vivo, mouse.
The test system of data set [2] is intracellular arginase in HepG2 cell line. The data set can be described thus: Native arginase activity in intact HepG2 cells. The settings on record: 10 mM L-arginine; urea in media after 24 h; N = 3; mean (±SD). Type of data set: cell-based, human.
Method: (§1) Intracellular arginase activity was determined for the arginase-expressing HepG2 and K-562 cell lines as follows. […] The medium was harvested after 24 h and urea generated was determined with the QuantiChrom Urea Assay Kit. Wells containing media without cells were used as background controls.
The test system of data set [3] is human granulocytes co-cultured with autologous T cells. The data set can be described thus: T cell/granulocyte co-culture assay (healthy donor). The format is cell-based. The settings on record: for IC50: Homo sapiens, T-cell, granulocytes to T cells 0.25 to 1. How it is done:
T cells or NK cells were purified from healthy donor human blood or from murine splenocytes using a negative selection kit for the appropriate cell type and species from Stemcell Technologies. Isolated T cells or NK cells were loaded with carboxyfluorescein succinimidyl ester (CFSE, Thermo Fisher) and stimulated for 72–96 h in complete growth medium containing a minimum of either 50 μM L-arginine (NK cells) or 100 μM L-arginine (T cells). For T cell stimulation, a solution of 10 μg/mL anti-CD3 (human clones UCHT1 or OKT3; murine clone 145-2C11) was used to coat the wells of a 96-well plate and then T cells were stimulated on immobilized anti-CD3 in the presence of 2 μg/mL soluble anti-CD28 (human clone CD28.2; murine clone 37.51). NK cells were stimulated with recombinant IL-2. Proliferation was quantified by analyzing CFSE dilution by flow cytometry (Guava flow cytometer, Millipore, Billerica, MA or Attune NxT flow cytometer, ThermoFisher).
Freshly isolated granulocytes were incubated for 48 h at 37 °C, during which time they spontaneously activate as determined by increased surface expression of CD66b and scatter properties. T cells isolated from the same healthy donor using a pan-T cell isolation kit (Stemcell Technologies) were loaded with CFSE and plated with immobilized anti-CD3 and soluble anti-CD28 in the presence of the aged granulocytes. The cells were co-cultured at several ratios of granulocytes to T cells as indicated in the figure or at a fixed ratio of 4 T cells to 1 granulocyte. […] Granulocytic MDSC (G-MDSC) or granulocytes from cancer patients were isolated from whole blood purchased from Conversant Biologics. G-MDSCs were purified from the PBMC layer of a Ficoll gradient by positive selection for CD66b^+ cells. Granulocytes were purified from the RBC layer of a Ficoll gradient using Hetasep (Stemcell Technologies). […] Cytokines were quantified in the media from T cell co-culture assays using the Cytometric Bead Array kit according to the manufacturer’s instructions (BD Biosciences).

The subject of a further data set is 4T1 tumors. Put plainly: 4T1 orthotopic tumor model. Type of data set: in vivo, mouse.
Data set [4] has as its system intracellular arginase in K562 cell line. Put plainly: Native arginase activity in intact K-562 cells. Type of data set: cell-based, human. The note with it: 10 mM L-arginine; urea in media after 24 h; N = 2; mean (±SD).
Method: as §1
The test system of data set [5] is LLC tumors. The data set can be described thus: LLC syngeneic tumor model. Type of data set: in vivo, mouse.
The subject of data set [6] is granulocytic MDSCs from a lung cancer patient / healthy donor T cells. Put plainly: T cell proliferation in G-MDSC-conditioned media (lung cancer patient). The format is cell-based, human. How it is done:
Freshly isolated granulocytes were incubated for 48 h at 37 °C, during which time they spontaneously activate as determined by increased surface expression of CD66b and scatter properties. T cells isolated from the same healthy donor using a pan-T cell isolation kit (Stemcell Technologies) were loaded with CFSE and plated with immobilized anti-CD3 and soluble anti-CD28 in the presence of the aged granulocytes. The cells were co-cultured at several ratios of granulocytes to T cells as indicated in the figure or at a fixed ratio of 4 T cells to 1 granulocyte. Co-cultures were incubated for 3–4 days, at which time the medium was analyzed for L-arginine and L-ornithine by mass spectrometry and T cell proliferation was determined by flow cytometry. Granulocytic MDSC (G-MDSC) or granulocytes from cancer patients were isolated from whole blood purchased from Conversant Biologics. G-MDSCs were purified from the PBMC layer of a Ficoll gradient by positive selection for CD66b^+ cells. Granulocytes were purified from the RBC layer of a Ficoll gradient using Hetasep (Stemcell Technologies). Granulocytes and G-MDSCs were characterized by flow cytometry for CD66b expression. […] Cytokines were quantified in the media from T cell co-culture assays using the Cytometric Bead Array kit according to the manufacturer’s instructions (BD Biosciences).

The subject of data set [7] is LLC tumors. Put plainly: LLC tumors in SCID mice. The note with it: 100 mg/kg twice daily. Type of data set: in vivo, mouse.
The subject of data set [8] is granulocytes from a head and neck cancer patient / healthy donor T cells. Put plainly: T cell proliferation in granulocyte-conditioned media (head and neck cancer patient). Type of data set: cell-based, human. How it is done:
Freshly isolated granulocytes were incubated for 48 h at 37 °C, during which time they spontaneously activate as determined by increased surface expression of CD66b and scatter properties. T cells isolated from the same healthy donor using a pan-T cell isolation kit (Stemcell Technologies) were loaded with CFSE and plated with immobilized anti-CD3 and soluble anti-CD28 in the presence of the aged granulocytes. The cells were co-cultured at several ratios of granulocytes to T cells as indicated in the figure or at a fixed ratio of 4 T cells to 1 granulocyte. Co-cultures were incubated for 3–4 days, at which time the medium was analyzed for L-arginine and L-ornithine by mass spectrometry and T cell proliferation was determined by flow cytometry. Granulocytic MDSC (G-MDSC) or granulocytes from cancer patients were isolated from whole blood purchased from Conversant Biologics. G-MDSCs were purified from the PBMC layer of a Ficoll gradient by positive selection for CD66b^+ cells. Granulocytes were purified from the RBC layer of a Ficoll gradient using Hetasep (Stemcell Technologies). Granulocytes and G-MDSCs were characterized by flow cytometry for CD66b expression. Freshly isolated G-MDSC or granulocytes were incubated in co-culture medium containing 100 μM L-arginine for 48 h, at which time the cells were removed and the G-MDSC- or granulocyte-conditioned media were used for incubating healthy donor CFSE-loaded T cells on immobilized anti-CD3/soluble anti-CD28 for 3–4 days. Cytokines were quantified in the media from T cell co-culture assays using the Cytometric Bead Array kit according to the manufacturer’s instructions (BD Biosciences).

The test system of data set [9] is LLC tumors. The data set can be described thus: LLC tumors in conditional Arg1 deleted mice. Type of data set: in vivo, mouse. The settings on record: 100 mg/kg every 12 h for 14 days, oral. How it is done:
Arg1 floxed mice were crossed to the Tie2-Cre deleter strain (The Jackson Laboratory) as previously described. Experimental mice were generated from crossing Arg1 ^Flox/Flox; Tie2-Cre ^+ males with Arg1 ^Flox/Flox; Tie2-Cre ^− females, with Cre negative littermates serving as wild-type controls. […] LLC cells (10^6 per mouse) were injected s.c. in the flank region. […] Mice were euthanized, and tumors excised and weights recorded. Myeloid deletion of Arg1 was confirmed via western blotting of IL-4-stimulated bone marrow-derived macrophages for all animals.

The subject of a further data set is B16 tumors. The data set can be described thus: B16 syngeneic tumor model. Type of data set: in vivo, mouse.
A further data set relates to tumor growth. Details: method as in PMID 15313928. The settings on record: cited from earlier work.
On the set-up of data set [10]: method as in PMID 20219858. The note with it: nor-NOHA injected over a period of 10 weeks; cited from earlier work.
Where [11] appears, read: 100 mg/kg twice daily, depleting antibodies.
The mark [12] stands for this setting: flow cytometry, study day 14, 100 mg/kg BID.
Where [13] appears, read: 100 mg/kg twice daily for 23 days, CT26-inoculated mice.
The mark [14] stands for this setting: flow cytometry, study day 10, 100 mg/kg BID.

Entries after “also recorded” stand apart in the source; their conditions may differ. Read-outs that look alike come from different tables or passages of the source.

Method for CT26 tumors: Female wild-type C57BL/6 and Balb/c mice (5–6 weeks old) were purchased from Charles River Laboratories (Hollister, CA). Severe combined immune deficient (SCID, B6.CB17-PrkdcSCID/SzJ) and Pmel-1 TCR transgenic (B6.Cg-Thy1a/Cy Tg(TcraTcrb)8Rest/J) mice (5–6 weeks old) were purchased from The Jackson Laboratory (Bar Harbor, ME). All mice were housed and treated in accordance with Institutional Animal Care and Use Committee guidelines. For the 4T1 tumor model, 10^5 cells were injected orthotopically into the mammary fat pad; for all other tumor models, 10^6 cells were injected subcutaneously (s.c.) in the right flank. […] Control groups received vehicle (water) twice daily by gavage. Tumor volume measured by digital caliper (length × width × width/2) and body weight were recorded three times per week. Animals were euthanized when tumors necrotized or volumes reached 2000 mm^3. For the CT26 model, anti-PD-L1 antibody (5 mg/kg, clone 10F.9G2, BioXCell, West Lebanon, NH) was injected intraperitoneally (i.p.) on days 5, 7, 9, 11, 13, and 15. […] Gemcitabine (Selleckchem, Houston, TX) was dosed 50 mg/kg i.p. on days 10 and 16 for the CT26 model, 60 mg/kg i.p. on days 6 and 10 for the LLC model, or 30 mg/kg i.p. on day 5 for the 4T1 model [17, 18]. […] For CD8^+ cell depletion, mice were injected i.p. with anti-CD8 antibody (25 mg/kg, clone 2.43, BioXCell) on days −1, 0, + 5, and +10. For NK cell depletion, mice were injected i.p. with anti-NK1.1 antibody (25 mg/kg, clone PK136, BioXCell) in the LLC and B16 models or with anti-Asialo GM1 sera (20 μL, Wako Chemicals, Richmond, VA) in the CT26 model, per the same schedule as anti-CD8.
Excised tumors were placed on ice in RPMI-1640 medium containing 5% FBS, minced with a razor blade, and dissociated in RPMI-1640 supplemented with mouse tumor dissociation enzymes (Miltenyi Biotec, Bergisch Gladbach, Germany) on a GentleMACS Octo Dissociator With Heat (Miltenyi Biotec) according to the manufacturer’s instructions. Dissociated tumors were strained through 70 μm nylon mesh, washed with cold PBS containing 2% FBS, blocked with anti-CD16/CD32 (Fc block antibody, eBioscience), and stained for cell surface antigens. For B16 and 4T1 tumors, washed dissociated tumor cells were incubated with Dead Cell Removal MicroBeads (Miltenyi Biotec) and applied to a magnetic column prior to staining. For intracellular staining, cells were fixed and permeabilized using buffers purchased from R&D Systems or eBioscience for cytoplasmic or nuclear antigens, respectively. All tumor flow experiments were acquired on an Attune NxT flow cytometer and analyzed with FlowJo software version 10 (Ashland, OR), using fluorescence-minus-one controls for gating and single-stained OneComp eBeads (eBioscience) to set compensation matrices.
Method for Recombinant human Arg2: Recombinant human arginase 2 (Arg2) comprising amino acids 23–254 was purchased from US Biological (Salem, MA). […] Activity was determined by a spectrophotometric assay using the QuantiChrom Urea Assay Kit (BioAssay Systems, Hayward, CA) or by quantification of the generation of ^13C(5)-L-ornithine from ^13C(6)-L-arginine using a SCIEX API4000 mass spectrometer (Applied Biosystems, Foster City, CA). Urea produced or ^13C(5)-L-ornithine peak areas were plotted and fitted to a four-parameter equation using GraphPad Prism software (San Diego, CA) to determine IC50 values.

For `C[C@H](N)C(=O)N1C[C@H](CCCB(O)O)[C@](N)(C(=O)O)C1` [CB-1158], the IC50 at Recombinant human Arg2 is 296 nM; in data set [2], 32000 nM; in data set [3] (Fig. 1d left, read-out: IC50, consumption of L-arginine from the media by granulocytes), 411 nM; in data set [3] (Fig. 1d right, read-out: IC50, granulocyte-mediated suppression of T cell proliferation) it was 204 nM; in data set [4], 139000 nM. Further, the “tumor growth, single agent” value was “significantly inhibited” in the data set on CT26 tumors (100 mg/kg twice daily, oral); “significantly inhibited; also recorded: modest effect” in the data set with 4T1 tumors (100 mg/kg twice daily, oral); “significantly inhibited” with LLC tumors [5] (100 mg/kg twice daily, oral); “significantly inhibited” in the data set with B16 tumors (100 mg/kg twice daily, oral). Besides, the “efficacy after depletion of either CD8+ cells or NK cells” value in the data set on CT26 tumors (setting [11]) and in the data set with B16 tumors (setting [11]) was “blocked the efficacy” each time. Further, the “tumor-infiltrating activated CD8+ CD25+ cytotoxic T cells vs vehicle” value in the data set with CT26 tumors (setting [12]) was “increase”; in the data set with B16 tumors (flow cytometry, study day 9, 100 mg/kg BID), “increase”. In addition, the “amount of L-arginine in plasma and tumors” value in [1] is recorded as “raised”. For the same compound, in “Tolerability in mice” (setting [13]), the “clinical observations and body weight” value is reported as “no significant clinical observations or impact on body weight”. For the same compound, the tolerability result in “Tolerability in mice” (setting [13]) and in the data set “Tolerability in mice” (twice-daily oral dosing for at least 40 days) was “well-tolerated” each time. In addition, the “T cell proliferation restored, of the proliferation observed for T cells without granulocytes” value in data set [3] (co-culture with activated granulocytes) turned out to be 90%. The “CD3+ T cells in the tumor vs vehicle” value in the data set on 4T1 tumors (setting [14]) is “increase”. The “NK cells in the tumor vs vehicle” value in the data set with 4T1 tumors (setting [14]) is “increase”. Further, in the data set on 4T1 tumors (setting [14]), the “myeloid cells in the tumor vs vehicle” value is reported as “decrease”. Also, the “effect of depletion of CD8+ cells on efficacy” value in the data set with LLC tumors [5] (100 mg/kg twice daily, study day 13) is given as “smaller effect”. In addition, the “efficacy after depletion of NK cells” value in the data set with LLC tumors [5] (100 mg/kg twice daily, study day 14) is on record as “loss of efficacy”. Besides, the “inflammatory cytokines in tumors vs vehicle” value in the data set with LLC tumors [5] (Luminex, 200 mg/kg twice daily for 14 days) is reported as “increases”. Besides, the “transcripts of interferon-responsive genes in tumors vs vehicle” value in the data set with LLC tumors [5] (Nanostring, 100 mg/kg twice daily for 13 days) is reported as “increases”. For the same compound, the “CD8+ T cells in the tumor vs vehicle” value in the data set with LLC tumors [5] (setting [12]) is “increase”. Moreover, in the data set on LLC tumors [5] (setting [12]), the “CD68+ macrophages in the tumor vs vehicle” value is on record as “decrease”. The “arginine depletion from the media” value in data set [6] and in data set [8] (granulocyte-conditioned media) was “blocked” each time. The “T cell proliferation restored, of control levels” value in data set [6] (MDSCs to T cells 1 to 1) is 99%; in data set [8] (granulocyte-conditioned media, granulocytes to T cells 0.5 to 1), 79%. Further, the “efficacy in the SCID background” value in the data set on LLC tumors [7] is “abrogated”. Moreover, the “secretion of interferon-γ and granzyme-B into the media” value in data set [8] (media from Fig. 1f, Cytometric Bead Array) is “restored”. The “tumor growth in Arg flox/flox; Tie2-Cre+ (ARG1ΔM) mice” value in the data set with LLC tumors [9] is recorded as “no further reduction in tumor growth”.

With `Nc1ccn([C@@H]2O[C@H](CO)[C@@H](O)C2(F)F)c(=O)n1` [Gemcitabine, gemcitabine, reference compound], in the data set with CT26 tumors (flow cytometry, study day 14), the “CD11b+ myeloid cells in the tumors” value was “significant decrease”.

On to `N=C(NO)NCC[C@H](N)C(=O)O` [nor-NOHA], for which the tumor growth result with tumor growth (injection of nor-NOHA) is reported as “reduced tumor growth”. Further, the tolerability entry (in the data set with tumor growth (multi-day studies in mice); in data set [10]) was “well-tolerated” in each case.
